Tested on: HBV viral production from HepAD38 cells
Experiment: Activity of test compounds on viral production from HepAD38 cells (viral load by qPCR of HBV core sequence in supernatant)
Type: cell-based
Conditions: Hepatitis B virus, 120 h, 5 days incubation, HBV DNA in supernatant by qPCR, top concentration 10 μM, read-out: Viral Load EC50 Activity range
Procedure, shortened: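 EC50 and CC50 come from four-parameter fits of supernatant viral load and CellTiter-Glo viability, respectively. Viral load was measured by core-region TaqMan qPCR against HBV DNA standards and compared with DMSO controls. Tet-free HepAD38 cells (50,000/well, 2% FBS) were exposed to compound, highest 10 μM, for 5 days at 37° C.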

Row | SMILES | EC50
1 | O=C(Nc1ccc(F)c(Cl)c1)C1CC(c2cccs2)NS(=O)(=O)N1CCO (stereo not drawn) [HBV-CSU-041, Cis-N-(3-Chloro-4-fluorophenyl)-2-(2-hydroxyethyl)-5-(thiophen-2-yl)-1,2,6-thiadiazinane-3-carboxamide 1,1-dioxide] | > 5000 nM
2 | CN(C)CCN1[C@H](c2cccs2)C[C@H](C(=O)Nc2ccc(F)c(Cl)c2)N(C)S1(=O)=O [HBV-CSU-043-ISO-II, Cis-N-(3-chloro-4-fluorophenyl)-6-(2-(dimethylamino)ethyl)-2-methyl-5-(thiophen-2-yl)-1,2,6-thiadiazinane-3-carboxamide 1,1-dioxide] | > 5000 nM
3 | COCCN1[C@H](c2cccs2)C[C@H](C(=O)Nc2ccc(F)c(Cl)c2)NS1(=O)=O [HBV-CSU-044-ISO-I, Cis-N-(3-Chloro-4-fluorophenyl)-6-(2-methoxyethyl)-5-(thiophen-2-yl)-1,2,6-thiadiazinane-3-carboxamide 1,1-dioxide] | > 5000 nM
4 | COCCN1[C@@H](c2cccs2)C[C@@H](C(=O)Nc2ccc(F)c(Cl)c2)NS1(=O)=O [HBV-CSU-044-ISO-II, Cis-N-(3-Chloro-4-fluorophenyl)-6-(2-methoxyethyl)-5-(thiophen-2-yl)-1,2,6-thiadiazinane-3-carboxamide 1,1-dioxide] | > 5000 nM
5 | CN1[C@H](C(=O)Nc2ccc(F)c(C#N)c2)C[C@H](c2cccs2)NS1(=O)=O [HBV-CSU-045-ISO-I, Cis-N-(3-cyano-4-fluorophenyl)-2-methyl-5-(thiophen-2-yl)-1,2,6-thiadiazinane-3-carboxamide 1,1-dioxide] | < 1000 nM
6 | CN1[C@H](C(=O)Nc2ccc(F)c(C(F)(F)F)c2)C[C@H](c2cccs2)NS1(=O)=O [HBV-CSU-046-ISO-I, Cis-N-(4-Fluoro-3-(trifluoromethyl)phenyl)-2-methyl-5-(thiophen-2-yl)-1,2,6-thiadiazinane-3-carboxamide 1,1-dioxide] | < 1000 nM
7 | CN1[C@H](C(=O)Nc2cc(Cl)cc(Cl)c2)C[C@H](c2cccs2)NS1(=O)=O [HBV-CSU-047-ISO-I, Cis-N-(3,5-Dichlorophenyl)-2-methyl-5-(thiophen-2-yl)-1,2,6-thiadiazinane-3-carboxamide 1,1-dioxide] | < 1000 nM
8 | CN1[C@H](C(=O)Nc2cc(Br)cc(Br)c2)C[C@H](c2cccs2)NS1(=O)=O [HBV-CSU-048-ISO-I, Cis-N-(3,5-Dibromophenyl)-2-methyl-5-(thiophen-2-yl)-1,2,6-thiadiazinane-3-carboxamide 1,1-dioxide] | < 1000 nM
9 | CN1[C@H](C(=O)Nc2cc(F)c(F)c(Br)c2)C[C@H](c2cccs2)NS1(=O)=O [HBV-CSU-049-ISO-I, Cis-N-(3-Bromo-4,5-difluorophenyl)-2-methyl-5-(thiophen-2-yl)-1,2,6-thiadiazinane-3-carboxamide 1,1-dioxide] | < 1000 nM
10 | C[C@H]1C[C@@H](C(=O)Nc2ccc(F)c(Cl)c2)N(C)S(=O)(=O)N1 [HBV-CSU-050-ISO-I, Cis-N-(3-chloro-4-fluorophenyl)-2,5-dimethyl-1,2,6-thiadiazinane-3-carboxamide 1,1-dioxide] | 1000 to 5000 nM
11 | C[C@@H]1C[C@H](C(=O)Nc2ccc(F)c(Cl)c2)N(C)S(=O)(=O)N1 [HBV-CSU-050-ISO-II, Cis-N-(3-chloro-4-fluorophenyl)-2,5-dimethyl-1,2,6-thiadiazinane-3-carboxamide 1,1-dioxide] | > 5000 nM
12 | CN1[C@@H](C(=O)Nc2ccc(F)c(Cl)c2)C[C@@H](c2ccnn2C)NS1(=O)=O [HBV-CSU-054-ISO-I, Cis-N-(3-Chloro-4-fluorophenyl)-2-methyl-5-(1-methyl-1H-pyrazol-5-yl)-1,2,6-thiadiazinane-3-carboxamide 1,1-dioxide] | > 5000 nM
13 | CN1[C@H](C(=O)Nc2ccc(F)c(Cl)c2)C[C@H](c2ccnn2C)NS1(=O)=O [HBV-CSU-054-ISO-II, Cis-N-(3-Chloro-4-fluorophenyl)-2-methyl-5-(1-methyl-1H-pyrazol-5-yl)-1,2,6-thiadiazinane-3-carboxamide 1,1-dioxide] | 1000 to 5000 nM
14 | CN1[C@H](C(=O)Nc2ccc(F)c(Cl)c2)C[C@H](c2ccon2)NS1(=O)=O [HBV-CSU-055-ISO-I, Cis-N-(3-chloro-4-fluorophenyl)-5-(isoxazol-3-yl)-2-methyl-1,2,6-thiadiazinane-3-carboxamide 1,1-dioxide] | < 1000 nM
15 | CN1[C@@H](C(=O)Nc2ccc(F)c(Cl)c2)C[C@@H](c2ccon2)NS1(=O)=O [HBV-CSU-055-ISO-II, Cis-N-(3-chloro-4-fluorophenyl)-5-(isoxazol-3-yl)-2-methyl-1,2,6-thiadiazinane-3-carboxamide 1,1-dioxide] | > 5000 nM
16 | CN1[C@H](C(=O)Nc2ccc(F)c(Cl)c2)C[C@H](c2ccsn2)NS1(=O)=O [HBV-CSU-056-ISO-I, Cis-N-(3-chloro-4-fluorophenyl)-5-(isothiazol-3-yl)-2-methyl-1,2,6-thiadiazinane-3-carboxamide 1,1-dioxide] | < 1000 nM

Row | SMILES | EC50
17 | CN1C(C(=O)Nc2ccc(F)c(Cl)c2)CC(c2ccns2)NS1(=O)=O (stereo not drawn) [HBV-CSU-057, Cis-N-(3-chloro-4-fluorophenyl)-5-(isothiazol-5-yl)-2-methyl-1,2,6-thiadiazinane-3-carboxamide 1,1-dioxide] | < 1000 nM
18 | COCCN1[C@@H](C(=O)Nc2ccc(F)c(Cl)c2)C[C@@H](c2nccs2)NS1(=O)=O [HBV-CSU-058-ISO-I, Cis-N-(3-chloro-4-fluorophenyl)-2-(2-methoxyethyl)-5-(thiazol-2-yl)-1,2,6-thiadiazinane-3-carboxamide 1,1-dioxide] | > 5000 nM
19 | COCCN1[C@H](C(=O)Nc2ccc(F)c(Cl)c2)C[C@H](c2nccs2)NS1(=O)=O [HBV-CSU-058-ISO-II, Cis-N-(3-chloro-4-fluorophenyl)-2-(2-methoxyethyl)-5-(thiazol-2-yl)-1,2,6-thiadiazinane-3-carboxamide 1,1-dioxide] | < 1000 nM
20 | COCCN1[C@@H](C(=O)Nc2ccc(F)c(Br)c2)C[C@@H](c2nccs2)NS1(=O)=O [HBV-CSU-059-ISO-I, Cis-N-(3-bromo-4-fluorophenyl)-2-(2-methoxyethyl)-5-(thiazol-2-yl)-1,2,6-thiadiazinane-3-carboxamide 1,1-dioxide] | > 5000 nM
21 | COCCN1[C@H](C(=O)Nc2ccc(F)c(Br)c2)C[C@H](c2nccs2)NS1(=O)=O [HBV-CSU-059-ISO-II, Cis-N-(3-bromo-4-fluorophenyl)-2-(2-methoxyethyl)-5-(thiazol-2-yl)-1,2,6-thiadiazinane-3-carboxamide 1,1-dioxide] | < 1000 nM
22 | CN1[C@@H](C(=O)Nc2ccc(F)c(Br)c2)C[C@@H](c2nccs2)NS1(=O)=O [HBV-CSU-060-ISO-I, Cis-N-(3-bromo-4-fluorophenyl)-2-methyl-5-(thiazol-2-yl)-1,2,6-thiadiazinane-3-carboxamide 1,1-dioxide] | > 5000 nM
23 | CN1[C@H](C(=O)Nc2ccc(F)c(Br)c2)C[C@H](c2nccs2)NS1(=O)=O [HBV-CSU-060-ISO-II, Cis-N-(3-bromo-4-fluorophenyl)-2-methyl-5-(thiazol-2-yl)-1,2,6-thiadiazinane-3-carboxamide 1,1-dioxide] | < 1000 nM
24 | COCCN1C(c2cccs2)CC(C(=O)Nc2ccc(F)c(Cl)c2)N(C)S1(=O)=O (stereo not drawn) [HBV-CSU-064, Cis-N-(3-Chloro-4-fluorophenyl)-6-(2-methoxyethyl)-2-methyl-5-(thiophen-2-yl)-1,2,6-thiadiazinane-3-carboxamide 1,1-dioxide] | > 5000 nM
25 | CC(C)(C)OCCN1[C@H](C(=O)Nc2ccc(F)c(Cl)c2)C[C@H](c2nccs2)NS1(=O)=O [HBV-CSU-071-ISO-I, Cis-2-(2-(tert-Butoxy)ethyl)-N-(3-chloro-4-fluorophenyl)-5-(thiazol-2-yl)-1,2,6-thiadiazinane-3-carboxamide 1,1-dioxide] | < 1000 nM
26 | O=C(Nc1ccc(F)c(Cl)c1)[C@H]1C[C@@H](c2nccs2)NS(=O)(=O)N1CCOC(F)(F)F [HBV-CSU-072-ISO-I, Cis-N-(3-Chloro-4-fluorophenyl)-5-(thiazol-2-yl)-2-(2-(trifluoromethoxy)ethyl)-1,2,6-thiadiazinane-3-carboxamide 1,1-dioxide] | > 5000 nM
27 | O=C(Nc1ccc(F)c(Cl)c1)[C@@H]1C[C@H](c2nccs2)NS(=O)(=O)N1CCOC(F)(F)F [HBV-CSU-072-ISO-II, Cis-N-(3-Chloro-4-fluorophenyl)-5-(thiazol-2-yl)-2-(2-(trifluoromethoxy)ethyl)-1,2,6-thiadiazinane-3-carboxamide 1,1-dioxide] | < 1000 nM
28 | COCCCN1[C@@H](C(=O)Nc2ccc(F)c(Cl)c2)C[C@@H](c2nccs2)NS1(=O)=O [HBV-CSU-077-ISO-I, Cis-N-(3-Chloro-4-fluorophenyl)-2-(3-methoxypropyl)-5-(thiazol-2-yl)-1,2,6-thiadiazinane-3-carboxamide 1,1-dioxide] | > 5000 nM
29 | COCCCN1[C@H](C(=O)Nc2ccc(F)c(Cl)c2)C[C@H](c2nccs2)NS1(=O)=O [HBV-CSU-077-ISO-II, Cis-N-(3-Chloro-4-fluorophenyl)-2-(3-methoxypropyl)-5-(thiazol-2-yl)-1,2,6-thiadiazinane-3-carboxamide 1,1-dioxide] | < 1000 nM
30 | O=C(Nc1ccc(F)c(Cl)c1)[C@@H]1C[C@H](c2nccs2)NS(=O)(=O)N1CCCO [HBV-CSU-078-ISO-I, Cis-N-(3-Chloro-4-fluorophenyl)-2-(3-hydroxypropyl)-5-(thiazol-2-yl)-1,2,6-thiadiazinane-3-carboxamide 1,1-dioxide] | < 1000 nM
31 | O=C(Nc1ccc(F)c(Cl)c1)[C@H]1C[C@@H](c2nccs2)NS(=O)(=O)N1CCCO [HBV-CSU-078-ISO-II, Cis-N-(3-Chloro-4-fluorophenyl)-2-(3-hydroxypropyl)-5-(thiazol-2-yl)-1,2,6-thiadiazinane-3-carboxamide 1,1-dioxide] | > 5000 nM
32 | COC(C)(C)CCN1[C@@H](C(=O)Nc2ccc(F)c(Cl)c2)C[C@@H](c2nccs2)NS1(=O)=O [HBV-CSU-083-ISO-I, Cis-N-(3-Chloro-4-fluorophenyl)-2-(3-methoxy-3-methylbutyl)-5-(thiazol-2-yl)-1,2,6-thiadiazinane-3-carboxamide 1,1-dioxide] | > 5000 nM

— US11078170B2 (Assembly Biosciences, Inc., priority 2017, dated 2021)
